Data from US20120237937A1, “METHODS TO DETECT CANCER IN ANIMALS” (UNIVERSITY OF LOUISVILLE RESEARCH FOUNDATION, INC., priority 2009, published 2012).
Counter-ions that a name gives are not always drawn.

Key:
[1] = NMR 13C-isotopomer profiling of TCA extracts of paired non-cancerous and cancerous lung tissues; conditions: for relative 13C abundance (HSQC peak volume normalized to total succinate concentration): patients #6-10; for % enrichment: human, in vivo
Experimental: Lung cancer patients were recruited based on the criteria of surgical eligibility and no history of diabetes. Each patient was consented in accordance with the U.S. HIPAA regulations. The following patient protocol was approved by the Internal Review Board at the University of Louisville. Ten grams uniformly ^13C labeled glucose ([U-^13C]-Glc or ^13C6-Glc or ^13C6-Glucose) in sterile saline solution were infused i.v. over a 30 min time period into each patient in the pre-op room approximately 3 or 12 hr prior to resection. Whole blood samples were collected into a vacutainer containing the anticoagulant K3EDTA or K3-EDTA before and after [U-^13C]-Glc infusion as well as after the surgery. Additional blood samples were collected 3 and 12 hr after the [U-^13C]-Glc infusion for the 12 hr treatment cases. […] The blood samples were placed on ice immediately after collection and centrifuged at 4° C. at 3,500×g for 15 min to recover the plasma fraction. All blood samples were aliquoted and flash-frozen in liquid N2 within 30 min of collection. Potassium EDTA was used as an anti-coagulant to minimize metabolic artifacts associated with anti-coagulation; it also served to remove the influence of interfering cations such as paramagnetic Fe^3+ and Cu^2+ for NMR analysis.
All timings from first incision to cutting arteries and veins to the lung were recorded so that the period of ischemia could be determined immediately after tissue resection, excess blood was blotted from the tissue, and small pieces of non-cancerous and tumor tissue were cut by the surgeon and freeze-clamped in liquid N2 within 5 minutes of removal from the chest cavity. The freezing process arrested metabolic changes almost instantaneously. […] Non-cancerous tissue was removed at least 2 cm from the tumor margin and certified to be tumor-free by trained pathologists. Subsequent pathological evaluation also confirmed tumor status and provided the tumor stage. All samples were stored at −80° C. until further processing for analysis.
Frozen tissue samples were pulverized into <10 μm particles in liquid N2 using a Spex freezer mill (Spex CertiPrep, Inc., Metuchen, N.J.) to maximize efficiency for subsequent extraction while maintaining biochemical integrity. An aliquot of the frozen powder was lyophilized before extraction for metabolites.
Water-soluble or polar metabolites were extracted from lyophilized tissue powders (4-48 mg) in ice-cold 10% trichloroacetic acid (TCA) (v/w minimum 40/1) while leaving proteins, nucleic acids, and polysaccharides behind, as described previously (Kim et al. Antioxidants & Redox Signaling 2001, 3:361-373). The extraction was performed twice for quantitative recovery. An aliquot (150 μl) of plasma samples were made to final 10% TCA concentration to precipitate proteins and recover metabolites in the supernatant. TCA was then removed from tissue or plasma extracts by lyophilization. The dry pellet was dissolved in nanopure water and two small aliquots were lyophilized for silylation and GC-MS analysis while the remaining bulk was passed through a Chelex 100 resin column (Bio-Rad Laboratories, Inc., Hercules, Calif.) to neutralize and remove interfering multivalent cations for NMR analysis.
The ^1H reference standard, DSS (2,2-Dimethyl-2-silapentane-5-sulfonate sodium salt) was added (30 or 50 nmoles) to the TCA extracts of tissue or plasma samples, respectively. […]

[2] = Isotopic enrichment in SCID mouse tissue lactate and glucose by 1D 1H NMR; assay type: in vivo; conditions: SCID, mouse, in vivo, 15 min
Experimental: A 20% solution of glucose in normal saline was sterile-filtered. 100 μL of this solution, or a 1:10 dilution (2%) were injected into the tail vein of a restrained mouse without anesthesia.
Mice were sacrificed at different times post glucose injection, and the following organs were dissected sequentially: lung, heart, liver, kidney, brain, spleen, and thigh muscle. Dissected tissue was flash frozen in liquid N2 within 1 minute of killing the animal.
Frozen tissues were ground in liquid N2 to <10 μm particles in a 6750 Freezer/Mill (Retsch, Inc., Newtown, Pa.) and extracted for soluble and lipidic metabolites as follows. Up to 20 mg of frozen tissue powder in 15 ml polypropylene conical centrifuge tube (Sarstedt, Newton, N.C.) containing 3 mm diameter glass beads was vigorously mixed with 2 ml of cold acetonitrile (mass spectrometry grade, stored at −20° C.) to denature proteins, followed by addition of 1.5 ml nanopure water, and 1 ml HPLC-grade chloroform (Fisher Scientific). The mixture was shaken vigorously until achieving a milky consistency followed by centrifugation at 3,000 g for 20 minutes at 4° C. to separate the polar (top), lipidic (bottom), and tissue debris layers (interface). The polar and lipidic layers were recovered sequentially and the remaining cell debris was extracted again with 0.5 ml chloroform:methanol:butylated hydroxytoluene (BHT) (2:1:1 mM) which was pooled with the lipidic fraction. All three fractions were vacuum-dried in a speedvac device (Vacufuge, Eppendorf, New York, N.Y.) and/or by lyophylization. The dry weight of tissue debris was obtained for normalization of metabolite content. The polar extracts were redissolved in 100% D2O containing 30 nmol perdeuterated DSS (2,2-dimethyl-2-silapentane-5-sulfonate, Cambridge Isotope Laboratories, Andover, Mass.) as internal chemical shift and concentration reference for NMR measurement.
NMR spectra were recorded at 14.1 T on a Varian Inova spectrometer equipped with a 5 mm inverse triple resonance cold probe, at 20° C. 1D NMR spectra were recorded with an acquisition time of 2 s and a recycle time of 5 sec. Concentrations of metabolites and ^13C incorporation were determined by peak integration of the ^1H NMR spectra referenced to the DSS methyl groups, with correction for differential relaxation, as previously described (See, Lane et al. (2008) Biophysical Tools for Biologists. 84: 541-588; Fan et al. (2008) Progress in NMR Spectroscopy 52: 69-117; Lane et al. (2007) Metabolomics 3: 79-86.). ^1H Spectra were typically processed with zero filling to 131 k points, and apodized with an unshifted Gaussian and a 0.5 Hz line broadening exponential.
The same extracts from FIG. 9 were analyzed by NMR to complement the GC-MS analysis. The ^13C enrichment into glucose/glucose-6-phosphate and lactate was determined by 1D ^1H NMR. The enrichments at 15 and 30 minutes post infusion were substantial in all tissues, and peak lactate enrichments differed according to the metabolic activity or glucose uptake rates of the different tissues (Table 7).
Lac measured at C3, G1c measured at C1α by NMR

[3] = GC-MS quantification of total and 13C-enriched metabolites in paired normal and cancerous lung tissues
[4] = GC-MS analysis of 13C-mass isotopomers of lactate in plasma after [U-13C]-glucose infusion; assay type: in vivo, human; conditions: in excess of natural abundance
[5] = patient #6 (sqC, grade II), cancer tissue
[6] = patient #6 (sqC, grade II), normal tissue
[7] = patient #7 (adenoC, grade II), cancer tissue
[8] = patient #7 (adenoC, grade II), normal tissue
[9] = patient #8 (sqC, grade II-III), cancer tissue
[10] = patient #8 (sqC, grade II-III), normal tissue
[11] = patient #9 (sqC, grade II), cancer tissue
[12] = patient #9 (sqC, grade II), normal tissue
[13] = patient #10 (sqC, grade III), cancer tissue
[14] = patient #10 (sqC, grade III), normal tissue

SMILES	relative 13C abundance (HSQC peak volume normalized to total succinate concentration) ([1]; non-cancerous tissues)	relative 13C abundance (HSQC peak volume normalized to total succinate concentration) ([1]; tumor tissues)	% enrichment [1] [%]	% 13C isotopic enrichment in tissue [2] [%]	metabolite content of lung tissue [3, 5] [μmole/g dry weight]	metabolite content of lung tissue [3, 6] [μmole/g dry weight]	metabolite content of lung tissue [3, 7] [μmole/g dry weight]	metabolite content of lung tissue [3, 8] [μmole/g dry weight]	metabolite content of lung tissue [3, 9] [μmole/g dry weight]	metabolite content of lung tissue [3, 10] [μmole/g dry weight]	metabolite content of lung tissue [3, 11] [μmole/g dry weight]	metabolite content of lung tissue [3, 12] [μmole/g dry weight]	metabolite content of lung tissue [3, 13] [μmole/g dry weight]	metabolite content of lung tissue [3, 14] [μmole/g dry weight]	Percentage distribution of 13C-mass isotopomers of lactate in plasma ([4]; patient #6, [U-13C]-glucose 3 h) [%]	Percentage distribution of 13C-mass isotopomers of lactate in plasma ([4]; patient #7, [U-13C]-glucose 3 h) [%]	Percentage distribution of 13C-mass isotopomers of lactate in plasma ([4]; patient #8, [U-13C]-glucose 3 h) [%]	Percentage distribution of 13C-mass isotopomers of lactate in plasma ([4]; patient #9, [U-13C]-glucose 3 h) [%]	Percentage distribution of 13C-mass isotopomers of lactate in plasma ([4]; patient #10, [U-13C]-glucose 3 h) [%]
O=C(O)[13CH2][13CH2]C(=O)O [C-2,3-succinate]	0.6±0.7	3.6±1.2																	
C[C@H](N)C(=O)O [Total Ala, alanine]			≤ 15	16	15.76	4.67	6.44	6.25	9.28	4.97	15.08	5.14	27.34	5.42					
N[C@@H](CC(=O)O)C(=O)O [Total Asp, aspartate]			< 8		4.27	1.32	3.09	3.83	1.51	2.67	4.78	1.94	1.66	2.27					
O=C(O)CC(O)(CC(=O)O)C(=O)O [Total Cit, citrate]					1.32	0.60	1.18	1.21	1.56	1.28	1.53	0.77	1.37	0.74					
NC(=O)CC[C@H](N)C(=O)O [Total Gln, glutamine]					7.68	0.56	1.02	1.41	1.32	0.64	2.71	0.74	2.99	0.79					
N[C@@H](CCC(=O)O)C(=O)O [Total Glu, glutamate]					4.80	0.24	2.97	2.96	3.25	1.88	4.78	1.91	3.28	1.82					
O=C(O)CCC(=O)O [Total Succ, succinate]					1.34	0.17	0.70	0.50	1.84	0.89	1.59	0.64	3.13	1.14					
[13CH3][13CH](O)[13C](=O)O (stereo not shown) [[U-^13C]-Lactate, uniformly ^13C labeled lactate]															1.89	4.84	3.31	3.47	6.37
